According to paper PMC9781104 (Pharmaceutics, 2022):
Read-outs that look alike come from different tables or passages of the source.

How the values were obtained:
[1] = Pharmacokinetic panel study in CYP2D6-genotyped healthy female volunteers (observed plasma AUClast/Cmax, DGI and DD(G)I with clarithromycin or paroxetine); format: in vivo, human
Experimental: Clinical data from a recently performed pharmacokinetic panel study (EudraCT-Nr.: 2009-014531-20, ClinicalTrails.gov: NCT01289756) were used for PBPK model development. The study protocol, patient information sheet and consent form were approved by the Ethics Committee of the University of Tübingen and the German Federal Institute for Drugs and Medical Devices (BfArM). All study participants had signed an informed consent form.
The study was conducted in 20 healthy, Caucasian, premenopausal female volunteers that were genotyped for CYP2D6 polymorphisms and subsequently assigned to predicted phenotypes according to the respective CYP2D6 activity score (AS) as depicted in Table 1 [17, 18]. […] After a wash-out phase of at least three weeks, clomiphene was administered concomitantly with the strong CYP3A4 inhibitor clarithromycin [19]. Here, the participants received 500 mg clarithromycin twice daily for four days. On day 5, a single dose of clomiphene citrate was administered together with 500 mg clarithromycin. Finally, in the third period, all subjects received clomiphene citrate together with the strong CYP2D6 inhibitor paroxetine. Here, 40 mg paroxetine was administered once daily for two days. On day 3, participants received a single dose of clomiphene citrate concomitantly with 40 mg paroxetine (Figure 1).
For the evaluation of DGI and DD(G)I effects, the predicted AUClast and Cmax effect ratios were calculated according to Equations (4) and (5) and compared with the corresponding observed values. Here, model performance was assessed using the prediction acceptance limits proposed by Guest et al. with 1.25-fold variability. (4) AUClast, AS=i ratio=AUClast, effect, AS=i/AUClast, control (5) Cmax, AS=i ratio=Cmax, effect, AS=i/Cmax, control
For the calculation of DGI ratios, AUClast, effect, AS=i and Cmax, effect, AS=i represent the AUClast and Cmax for CYP2D6 AS = i, while AUClast, control and Cmax, control are the AUClast and Cmax values for the NM (AS = 2) population. For the calculation of DD(G)I ratios, AUClast, effect, AS=i and Cmax, effect, AS=i represent the AUClast and Cmax for the CYP2D6 AS = i in the DD(G)I scenario with clarithromycin or paroxetine, while AUClast, control and Cmax, control are the AUClast and Cmax values for the CYP2D6 AS = i without the concomitant use of perpetrator drugs.

CYP2D6 [2] = test: Fraction metabolized via CYP2D6 calculated from observed AUClast (PM vs NM, Equation S1); format: in vivo, human; settings: calculated from observed relative AUClast increase PM vs NM
Source text: Calculation of Fractions Metabolized
(§1) (normal metabolizers (NM)) [39]. […] In addition, data from
(§2) the CYP2D6 NM population in the clarithromycin DDI scenario (CYP3A4 inhibition) was used to
(§3) For this, the observed relative AUClast increase in the NM population between
(§4) the DDI scenario with CYP3A4 inhibition and the control scenario without inhibition was used,
(§5) 1 −fm = AUClast,effect,AS=iAUClast,control (S1)

CYP3A4 [3] = test: Fraction metabolized via CYP3A4 calculated from observed AUClast (NM with vs without clarithromycin, Equation S1); format: in vivo, human; settings: estimated from observed AUClast increase in NM with clarithromycin
Source text: Calculation of Fractions Metabolized
as §1, §2, §3, §4
Of note, a complete CYP3A4 inhibition through clarithromycin
was assumed, given the strong and mechanism-based inhibition through clarithromycin, which was
as §5
for the NM population without concomitant clarithromycin administration.

[4] = Bioavailability calculated from literature AUC0-24h after oral and intravenous clomiphene citrate; format: in vivo, human; settings: 50 mg clomiphene citrate; intravenous study n = 2
Source text: Both isomers show highly distinct pharmacokinetic characteristics and also differ in affinity to the target receptor [22, 28]. […] While the calculated value from the literature is based on an intravenous study with a small number of study participants (n = 2), a low bioavailability can be supported with the developed PBPK model.

CYP2D6 [5] = test: In vitro scaling factors from CYP2D6 activity score-specific in vitro metabolite formation rates; format: in vitro ADME, human
Source text: Here, kcat, AS=i represents the catalytic rate constant for CYP2D6 AS = i, kcat, AS=2 is the catalytic rate constant for the NM population and IVSFi is the corresponding in vitro scaling factor (IVSF).
S2. Drug-Gene-Interaction (DGI) Modeling
S2.1. CYP2D6 in vitro Scaling Factors
The estimated CYP2D6 kcat values for the NM population were extrapolated to the intermediate metabolizers (IM) (AS=0.5, AS=0.75 and AS=1) and ultrarapid metabolizers (UM) populations according to Equation 1 in the main manuscript, using in vitro scaling factors (IVSFs). Determination of IVSFs were based on AS-specific in vitro metabolite formation rates relative to the corresponding formation rate in NM as a reference. The respective IVSFs for each CYP2D6-dependent pathway are depicted in Table S8. Measured in vitro data for (E)-4-OH-Clom and (E)-4-OH-DE-Clom AS-specific formation rates were available, while mean values were assumed for the remaining CYP2D6-dependent metabolic pathways.
Table S8. Employed in vitro scaling factors (IVSFs) for individual CYP2D6 activity scores. […]

CYP2D6 [6] = settings: cited from earlier work; for Km: literature value adapted with fu,inc
CYP3A4 [7] = test system: CYP3A4; design: method as in ref [17, 18] of supplement; settings: literature value adapted with fu,inc; ref [17, 18] of supplement; read-out: CYP3A4 Km → (E)-DE-Clom; cited from earlier work
CYP2B6 = test system: CYP2B6; design: method as in ref [17, 18] of supplement; settings: literature value adapted with fu,inc; ref [17, 18] of supplement; read-out: CYP2B6 Km → (E)-4-OH-Clom; cited from earlier work
[8] = cited from earlier work

- order of AUClast across CYP2D6 phenotypes ([1]; DGI setting): AUCPM > AUCIM > AUCNM > AUCUM
- exposure increase in clarithromycin DD(G)I scenario vs control ([1]; NM): ~ 15%
- AUClast increase with concomitant paroxetine ([1]; all phenotypes except PM): 2.5–12 fold
- AUClast change during CYP3A4 inhibition ([1]; clarithromycin, all phenotypes): slight increase
- fraction metabolized (fm) via CYP2D6 (CYP2D6 [2]): ~90%
- fraction metabolized (fm) via CYP3A4 (CYP3A4 [3]): approximately 13%
- bioavailability calculated from reported AUC0-24h after oral and intravenous application [4]: ~ 6.3%
- IVSF, CYP2D6-mediated pathway → (E)-DE-Clom (CYP2D6 [5]; AS=0, mean value assumed): 0
- IVSF, CYP2D6-mediated pathway → undef. (CYP2D6 [5]; AS=0, mean value assumed): 0
- IVSF, CYP2D6-mediated pathway → (E)-4-OH-Clom (CYP2D6 [5]; AS=0, relative to NM, from in vitro formation rates, supplement ref [17]): 0
- IVSF, CYP2D6-mediated pathway → (E)-DE-Clom (CYP2D6 [5]; AS=0.5, mean value assumed): 0.17
- IVSF, CYP2D6-mediated pathway → undef. (CYP2D6 [5]; AS=0.5, mean value assumed): 0.17
- IVSF, CYP2D6-mediated pathway → (E)-4-OH-Clom (CYP2D6 [5]; AS=0.5, relative to NM, from in vitro formation rates, supplement ref [17]): 0.19
- IVSF, CYP2D6-mediated pathway → (E)-DE-Clom (CYP2D6 [5]; AS=0.75, mean value assumed): 0.23
- IVSF, CYP2D6-mediated pathway → undef. (CYP2D6 [5]; AS=0.75, mean value assumed): 0.23
- IVSF, CYP2D6-mediated pathway → (E)-4-OH-Clom (CYP2D6 [5]; AS=0.75, relative to NM, from in vitro formation rates, supplement ref [17]): 0.27
- IVSF, CYP2D6-mediated pathway → (E)-DE-Clom (CYP2D6 [5]; AS=1, mean value assumed): 0.51
- IVSF, CYP2D6-mediated pathway → undef. (CYP2D6 [5]; AS=1, mean value assumed): 0.51
- IVSF, CYP2D6-mediated pathway → (E)-4-OH-Clom (CYP2D6 [5]; AS=1, relative to NM, from in vitro formation rates, supplement ref [17]): 0.57
- IVSF, CYP2D6-mediated pathway → (E)-4-OH-Clom (CYP2D6 [5]; AS=2 (NM, reference)): 1
- IVSF, CYP2D6-mediated pathway → (E)-DE-Clom (CYP2D6 [5]; AS=2 (NM, reference)): 1
- IVSF, CYP2D6-mediated pathway → undef. (CYP2D6 [5]; AS=2 (NM, reference)): 1
- IVSF, CYP2D6-mediated pathway → (E)-DE-Clom (CYP2D6 [5]; AS=3, mean value assumed): 1.41
- IVSF, CYP2D6-mediated pathway → undef. (CYP2D6 [5]; AS=3, mean value assumed): 1.41
- IVSF, CYP2D6-mediated pathway → (E)-4-OH-Clom (CYP2D6 [5]; AS=3, relative to NM, from in vitro formation rates, supplement ref [17]): 1.52
SMILES: CCN(CC)CCOc1ccc(/C(=C(/Cl)c2ccccc2)c2ccccc2)cc1 [(E)-Clom, (E)-clomiphene, reference compound]
- intrinsic clearance of CYP2D6 pathway to (Z)-3-hydroxyclomiphene compared to formation of (E)-4-OH-Clom (CYP2D6 [6]; higher, ref [19] of supplement): 1.8 fold
- Km (CYP2D6 [6]; ref [17, 18] of supplement, read-out: CYP2D6 Km → (E)-DE-Clom): 0.78 µM
- Km (CYP2D6 [6]; ref [19] ((E)-Clom, (E)-4-OH-Clom), [17, 18] ((E)-DE-Clom) of supplement, read-out: CYP2D6 Km → undef.): 0.03 µM
- Km (CYP2D6 [6]; ref [19] of supplement, read-out: CYP2D6 Km → (E)-4-OH-Clom): 0.13 µM
- Km (CYP3A4 [7]): 0.78 µM
- Km (CYP2B6): 0.6 µM
- Solubility (pH 6.8) ([8]; pH 6.8, ref [24] of supplement): 0.0138 mg/ml
- pKa (base), literature ([8]; ref [23], [30], [34], [38] of supplement (ChemAxon Chemicalize)): 9.31
